Test results reported in PMC6254286, “Quantitative Structure − Antiprotozoal Activity Relationships of Sesquiterpene Lactones ^†” (Molecules, 2009).

test system: Leishmania donovani amastigotes (strain MHOM/ET/67/L82); assay: L. donovani axenic amastigote assay (resazurin); assay type: cell-based; conditions: Leishmania donovani, 72 h, pH 5.4, axenic amastigotes, pH 5.4, 72 h; mean of two independent measurements; read-out: IC50 L. donovani (Ldon)
Method: Leishmania donovani (axenic amastigote assay). […] Serial drug dilutions in duplicates were prepared covering a range from 30 to 0.041 µg/mL. […] The compounds used as positive controls in the various bioassays (see Table 1) were of commercial origin, with the exception of melarsoprol, which was a gift from WHO. Their purity (generally > 95%) was specified by the manufacturers.

Compound	IC50 [µM]
C=C1C(=O)OC2CC3(C)CC(=O)CC(C)C3=CC12 (stereo not drawn) [Compound 30]	8.7
C=C1C(=O)OC2C=C(C)CCC3OC3(COC(C)=O)CC(OC(=O)C3(C)OC3C)C12 (stereo not drawn) [Compound 37]	5.19
C=C1C(=O)OC2CC(C)C3C(O)CC(OC(=O)C(C)=CC)C3(C)C(O)C12 (stereo not drawn) [Compound 12]	18
C=C1C(=O)OC2C=C(C)C(O)CC3OC3(C)CC(OC(=O)C(C)=CC)C12 (stereo not drawn) [Compound 38]	18.2

same assay, conditions: Leishmania donovani, 72 h, pH 5.4, read-out: IC50 L. donovani (Ldon)

Compound	IC50 [µM]
C=C1C(=O)OC2CC(C)C3C=CC(=O)C3(C)C(O)C12 (stereo not drawn) [Compound 8]	> 4
C=C1C(=O)OC2C=C(C)C(OC(C)=O)CC3OC3(C)CC(OC(=O)C(C)=CC)C12 (stereo not drawn) [Compound 39]	30.1

same assay, conditions: Leishmania donovani; axenic amastigotes, pH 5.4, 72 h; mean of two independent measurements; read-out: IC50 L. donovani (Ldon)

Compound	IC50 [µM]
C=C1C(=O)OC2CC(C)C3C(O)CC(O)C3(C)C(OC(=O)C(C)=CC)C12 (stereo not drawn) [Compound 13]	14.5
CC1CC2OC(=O)C(C)C2C(O)C2(C)C(=O)C=CC12 (stereo not drawn) [Compound 5]	3.85

test system: K1 strain of P. falciparum; assay: Antiplasmodial [3H]-hypoxanthine incorporation assay; assay type: cell-based, Plasmodium falciparum; conditions: Plasmodium falciparum, K1, K1 strain (resistant to chloroquine and pyrimethamine); mean of two independent measurements; read-out: IC50 P. falciparum (Pfc)
Method: Plasmodium falciparum. Antiplasmodial activity was determined using the K1 strain of P. falciparum (resistant to chloroquine and pyrimethamine). A modification of the [3H]-hypoxanthine incorporation assay was used. Briefly, infected human red blood cells (final parasitaemia and haematocrit were 0.3% and 1.25%, respectively) in RPMI 1640 medium with 5% Albumax were exposed to serial drug dilutions in microtiter plates. After 48 hours of incubation at 37°C in a reduced oxygen atmosphere, 0.5 mCi 3H-hypoxanthine was added to each well. Cultures were incubated for a further 24 h before they were harvested onto glass-fiber filters and washed with distilled water. The radioactivity was counted using a BetaplateTM liquid scintillation counter (Wallac, Zurich, Switzerland). […] From the sigmoidal inhibition curves IC50 values were calculated. Assays were run in duplicate and repeated once.

Compound	IC50 [µM]
C=C1C(=O)OC2CC3(C)CC(=O)CC(C)C3=CC12 (stereo not drawn) [Compound 30]	10.7
C=C1C(=O)OC2C=C(C)CCC3OC3(COC(C)=O)CC(OC(=O)C3(C)OC3C)C12 (stereo not drawn) [Compound 37]	6.33
C=C1C(=O)OC2CC(C)C3C(O)CC(OC(=O)C(C)=CC)C3(C)C(O)C12 (stereo not drawn) [Compound 12]	10.6
C=C1C(=O)OC2C=C(C)C(O)CC3OC3(C)CC(OC(=O)C(C)=CC)C12 (stereo not drawn) [Compound 38]	8.81

same assay, conditions: Plasmodium falciparum, K1, read-out: IC50 P. falciparum (Pfc)

Compound	IC50 [µM]
C=C1C(=O)OC2C=C(C)C(OC(C)=O)CC3OC3(C)CC(OC(=O)C(C)=CC)C12 (stereo not drawn) [Compound 39]	8.07
C=C1C(=O)OC2CC(C)C3C(O)CC(O)C3(C)C(OC(=O)C(C)=CC)C12 (stereo not drawn) [Compound 13]	27.5
CC1CC2OC(=O)C(C)C2C(O)C2(C)C(=O)C=CC12 (stereo not drawn) [Compound 5]	3.05

test system: T. cruzi Tulahuen strain C2C4; assay: In vitro activity against T. cruzi in L-6 host cells (beta-galactosidase/CPRG); assay type: cell-based, Trypanosoma cruzi; conditions: Trypanosoma cruzi, L6; Tulahuen C2C4 in L-6 cells, 96 h; mean of two independent measurements; read-out: IC50 T. cruzi (Tcr)
Method: Trypanosoma cruzi. Rat skeletal myoblasts (L-6 cells) were seeded in 96-well microtiter plates at 2,000 cells/well in 100 µL RPMI 1640 medium with 10% FBS (fetal bovine serum) and 2 mM L-glutamine. After 24 hours the medium was removed and replaced by 100 µL per well containing 5,000 trypomastigote forms of T. cruzi Tulahuen strain C2C4 containing the β-galactosidase (Lac Z) gene. Fortyeight hours later the medium was removed from the wells and replaced by […] fresh medium with or without a serial drug dilution. Seven 3-fold dilutions were used covering a range from […]. Each drug was tested in duplicate. After 96 hours of incubation the plates were inspected under an inverted microscope to assure growth of the controls and sterility. Then the substrate CPRG/ Nonidet (50 µL) was added to all wells. A colour reaction developed within 2-6 hours and could be read photometrically at 540 nm.

Compound	IC50 [µM]
C=C1C(=O)OC2CC(C)C3C(O)CC(O)C3(C)C(OC(=O)C(C)=CC)C12 (stereo not drawn) [Compound 13]	60.2
CC1CC2OC(=O)C(C)C2C(O)C2(C)C(=O)C=CC12 (stereo not drawn) [Compound 5]	21.5

same assay, conditions: Trypanosoma cruzi, TULAHUEN, L6, 96 h, Tulahuen C2C4 in L-6 cells, 96 h; mean of two independent measurements; read-out: IC50 T. cruzi (Tcr)

Compound	IC50 [µM]
C=C1C(=O)OC2CC3(C)CC(=O)CC(C)C3=CC12 (stereo not drawn) [Compound 30]	17.3
C=C1C(=O)OC2C=C(C)CCC3OC3(COC(C)=O)CC(OC(=O)C3(C)OC3C)C12 (stereo not drawn) [Compound 37]	15.8
C=C1C(=O)OC2CC(C)C3C(O)CC(OC(=O)C(C)=CC)C3(C)C(O)C12 (stereo not drawn) [Compound 12]	49.2
C=C1C(=O)OC2C=C(C)C(O)CC3OC3(C)CC(OC(=O)C(C)=CC)C12 (stereo not drawn) [Compound 38]	16.5

same assay, conditions: Trypanosoma cruzi, TULAHUEN, L6, 96 h, read-out: IC50 T. cruzi (Tcr)

Compound	IC50 [µM]
C=C1C(=O)OC2CC(C)C3C=CC(=O)C3(C)C(O)C12 (stereo not drawn) [Compound 8]	1.87
C=C1C(=O)OC2C=C(C)C(OC(C)=O)CC3OC3(C)CC(OC(=O)C(C)=CC)C12 (stereo not drawn) [Compound 39]	17.6

test system: not listed separately; assay: Cytotoxicity against L6 cells (Alamar blue); conditions: rat
Method: (§1) Trypanosoma brucei rhodesiense and cytotoxicity against L6 cells. Minimum Essential Medium with Earle’s salts (50 µL) supplemented with 0.2 mM 2-mercapto-ethanol, 1 mM Na-pyruvate and 15% heat-inactivated horse serum was added to each well of a 96-well microtiter plate. […] Then 10^4 bloodstream forms of Trypanosoma brucei rhodesiense STIB 900 in 50 µL of medium were added to each well and the plate incubated at 37°C under a 5% CO2 atmosphere for 72 hours. […] The plate was then read in a Spectramax Gemini XS microplate fluorometer (Molecular Devices Corporation, Sunnyvale, CA, USA) using an excitation wavelength of 536 nm and emission wavelength of 588 nm. Fluorescence development was measured and expressed as percentage of the control. Data were transferred into the graphic programme Softmax Pro (Molecular Devices) which calculated IC50 values. Cytotoxicity was assessed using a similar protocol and rat skeletal myoblasts (L6 cells). […] All following steps were according to the T. b. rhodesiense protocol.

Compound	IC50 at 72 h [µM]
C=C1C(=O)OC2CC(C)C3C=CC(=O)C3(C)C(O)C12 (stereo not drawn) [Compound 8]	2.44
C=C1C(=O)OC2C=C(C)C(OC(C)=O)CC3OC3(C)CC(OC(=O)C(C)=CC)C12 (stereo not drawn) [Compound 39]	10.1

same assay, conditions: rat, IC50 Cytotoxicity (L6), L6 rat skeletal myoblasts, 72 h; mean of two independent measurements

Compound	IC50 [µM]
C=C1C(=O)OC2CC(C)C3C(O)CC(O)C3(C)C(OC(=O)C(C)=CC)C12 (stereo not drawn) [Compound 13]	31.8
CC1CC2OC(=O)C(C)C2C(O)C2(C)C(=O)C=CC12 (stereo not drawn) [Compound 5]	8.9
C=C1C(=O)OC2CC(C)C3C(O)CC(OC(=O)C(C)=CC)C3(C)C(O)C12 (stereo not drawn) [Compound 12]	16.7

same assay, conditions: rat, L6 cells (rat skeletal myoblasts)

Compound	IC50 at 72 h [µM]
C=C1C(=O)OC2CC3(C)CC(=O)CC(C)C3=CC12 (stereo not drawn) [Compound 30]	10.2
C=C1C(=O)OC2C=C(C)CCC3OC3(COC(C)=O)CC(OC(=O)C3(C)OC3C)C12 (stereo not drawn) [Compound 37]	7.75
C=C1C(=O)OC2C=C(C)C(O)CC3OC3(C)CC(OC(=O)C(C)=CC)C12 (stereo not drawn) [Compound 38]	13

test system: Trypanosoma brucei rhodesiense STIB 900; assay: In vitro activity against T. brucei rhodesiense bloodstream forms (Alamar blue); assay type: cell-based; conditions: Trypanosoma brucei, 72 h, bloodstream forms STIB 900, 72 h; mean of two independent measurements; read-out: IC50 T. brucei rhodes. (Tbr)
Method: as §1

Compound	IC50 [µM]
C=C1C(=O)OC2CC(C)C3C(O)CC(O)C3(C)C(OC(=O)C(C)=CC)C12 (stereo not drawn) [Compound 13]	19.2
CC1CC2OC(=O)C(C)C2C(O)C2(C)C(=O)C=CC12 (stereo not drawn) [Compound 5]	0.686
C=C1C(=O)OC2CC3(C)CC(=O)CC(C)C3=CC12 (stereo not drawn) [Compound 30]	1.6
C=C1C(=O)OC2C=C(C)CCC3OC3(COC(C)=O)CC(OC(=O)C3(C)OC3C)C12 (stereo not drawn) [Compound 37]	0.478
C=C1C(=O)OC2CC(C)C3C(O)CC(OC(=O)C(C)=CC)C3(C)C(O)C12 (stereo not drawn) [Compound 12]	11
C=C1C(=O)OC2C=C(C)C(O)CC3OC3(C)CC(OC(=O)C(C)=CC)C12 (stereo not drawn) [Compound 38]	0.942

same assay, conditions: Trypanosoma brucei, 72 h, read-out: IC50 T. brucei rhodes. (Tbr), bloodstream forms STIB 900, 72 h; mean of two independent measurements

Compound	IC50 [µM]
C=C1C(=O)OC2CC(C)C3C=CC(=O)C3(C)C(O)C12 (stereo not drawn) [Compound 8]	0.319
C=C1C(=O)OC2C=C(C)C(OC(C)=O)CC3OC3(C)CC(OC(=O)C(C)=CC)C12 (stereo not drawn) [Compound 39]	0.804
